Consider nine compounds from DBAASP.

Values after ≈ are worked out from the molar mass of the structure shown.

Some test systems named below: Cryptococcus neoformans; Escherichia coli; Streptococcus pneumoniae; Candida albicans; Salmonella typhimurium; Bacillus subtilis; Pseudomonas putida; Serratia marcescens; Saccharomyces cerevisiae; Streptococcus mutans; Staphylococcus aureus; Escherichia coli BW25113; Escherichia coli UB1005.
What all share (experiment): ≥ marks a high value that may be exact or a test limit, other limits are often not marked, values filed in µg/mL are converted to µM
Assay [1] deals with Enterococcus faecalis CIP 76.117.
In assay [2] the test system is Escherichia coli ATCC 25922.
For assay [3], the system named is Staphylococcus aureus ATCC 43300.
The subject of assay [4] is Cryptococcus neoformans ATCC 208821.
Assay [5] has as its system Klebsiella pneumoniae ATCC 700603.
For assay [6], the system named is Acinetobacter baumannii ATCC 19606.
The subject of assay [7] is Candida albicans ATCC 90028.
The subject of assay [8] is Pseudomonas aeruginosa ATCC 27853.
Assay [9] deals with Bacillus cereus ATCC 11778.
Assay [10] has as its system Staphylococcus aureus ATCC 29213.
In assay [11] the test system is Klebsiella aerogenes ATCC 13048.
The test system of assay [12] is Salmonella enterica subsp. enterica serovar Typhimurium ATCC 14028.
Assay [13] relates to Pseudomonas aeruginosa PAO1.
The test system of assay [14] is Pseudomonas aeruginosa 253.
Assay [15] concerns Pseudomonas aeruginosa 910.
Assay [16] deals with Pseudomonas aeruginosa 919.
For assay [17], the system named is Enterococcus faecalis ATCC 29212.
Assay [18] has as its system Pseudomonas aeruginosa H103.
Assay [19] concerns Salmonella enterica serovar Typhimurium.
Assay [20] concerns Staphylococcus aureus ATCC 25923.
For assay [21], the system named is Staphylococcus epidermidis.

With `CC[C@H](C)[C@H](NC(=O)[C@H](CCC(N)=O)NC(=O)[C@@H]1CCCN1C(=O)[C@H](CC(=O)O)NC(=O)[C@H](Cc1ccccc1)NC(=O)[C@@H](NC(=O)[C@H](Cc1cnc[nH]1)NC(=O)[C@H](Cc1cnc[nH]1)NC(=O)[C@H](Cc1ccccc1)NC(=O)[C@@H](N)Cc1ccccc1)[C@@H](C)CC)C(=O)N[C@@H](CCCCN)C(=O)N[C@@H](CO)C(=O)NCC(=O)N[C@@H](CC(C)C)C(=O)N[C@@H](CC(C)C)C(=O)N[C@H](C(=O)N[C@@H](CO)C(=O)N[C@@H](CCSC)C(=O)N[C@@H](Cc1ccc(O)cc1)C(=O)N[C@@H](CC(=O)O)C(=O)O)C(C)C` [FFHHIFDPQIKSGLLVSMYD], in assay [1], the MIC is ≥ 122 µM.
In the case of `NCC(=O)N[C@@H](CCCN=C(N)N)C(=O)N[C@@H](CCCN=C(N)N)C(=O)NCC(=O)NCC(=O)N[C@@H](CCCN=C(N)N)C(=O)NCC(=O)NCC(=O)N[C@@H](CCCN=C(N)N)C(=O)NCC(=O)N[C@@H](CCCN=C(N)N)C(=O)NCC(=O)N[C@@H](CCCN=C(N)N)C(=O)O` [GRRGGRGGRGRGR], the MIC in assay [2] was > 23.6 µM; in [3] it was > 23.6 µM; in assay [4] it was 23.6 µM (≈ 32 µg/mL); in assay [5], > 23.6 µM; in assay [6] it was > 23.6 µM; in [7], 23.6 µM (≈ 32 µg/mL). The minimal inhibitory concentration (MIC) in assay [8] was > 23.6 µM.
`CC[C@H](C)[C@H](N)C(=O)N[C@@H](CC(C)C)C(=O)NCC(=O)N[C@@H](C)C(=O)N[C@@H](C)C(=O)N[C@@H](Cc1c[nH]c2ccccc12)C(=O)N[C@@H](CC(N)=O)C(=O)NCC(=O)N[C@@H](C)C(=O)N[C@@H](CCCCN)C(=O)N[C@@H](CO)C(=O)N[C@@H](CC(C)C)C(=O)N[C@@H](Cc1ccccc1)C(N)=O` [ILGAAWNGAKSLF]: the MIC is > 74.2 µM in [2]; ≥ 74.2 µM in [9]; > 74.2 µM in [10]; ≥ 74.2 µM in assay [11]; > 74.2 µM in [12].
Consider `CC[C@H](C)[C@H](N)C(=O)N[C@@H](CC(C)C)C(=O)N[C@@H](CCCCN)C(=O)N[C@@H](Cc1c[nH]c2ccccc12)C(=O)N[C@@H](CCCCN)C(=O)N[C@H](C(=O)N[C@@H](Cc1ccccc1)C(=O)N[C@@H](CCCCN)C(=O)N[C@@H](Cc1c[nH]c2ccccc12)C(=O)N[C@@H](CCCCN)C(=O)N[C@@H](Cc1c[nH]c2ccccc12)C(=O)N[C@@H](Cc1ccccc1)C(=O)N[C@@H](CCCN=C(N)N)C(N)=O)[C@@H](C)CC` [ILKWKIFKWKWFR], for which the MIC was 2 µM (≈ 3.76 µg/mL) in assay [13], 11.3 µM (≈ 21.3 µg/mL) in [14], 4 µM (≈ 7.51 µg/mL) in assay [15] and ≥ 32 µM in assay [16].
On to `CC(C)C[C@H](NC(=O)[C@H](CC(C)C)NC(=O)[C@H](CCCN=C(N)N)NC(=O)[C@H](Cc1cnc[nH]1)NC(=O)[C@@H](NC(=O)[C@H](CCCN=C(N)N)NC(=O)CNC(=O)[C@@H](NC(=O)[C@@H]1CCCN1)C(C)C)C(C)C)C(=O)N[C@@H](CCCN=C(N)N)C(=O)N[C@@H](CCCCN)C(=O)O` [PVGRVHRLLRK], for which the MIC in the assay with Cryptococcus neoformans was ≥ 96.2 µM; against Escherichia coli it was 24 µM (≈ 32 µg/mL); in the assay with Streptococcus pneumoniae, ≥ 48.1 µM; against Candida albicans, 48.1 µM (≈ 64 µg/mL); in the assay with Salmonella typhimurium, 24 µM (≈ 32 µg/mL); against Bacillus subtilis, 24 µM (≈ 32 µg/mL). For the same compound, the MIC was ≥ 48.1 µM in the assay on Pseudomonas putida; ≥ 48.1 µM against Serratia marcescens; ≥ 96.2 µM against Saccharomyces cerevisiae; 24 µM (≈ 32 µg/mL) in the assay with Streptococcus mutans; 48.1 µM (≈ 64 µg/mL) against Staphylococcus aureus.
The compound `CC[C@H](C)[C@H](NC(=O)[C@@H]1CCCN1C(=O)[C@H](Cc1c[nH]c2ccccc12)NC(=O)[C@H](CCCN=C(N)N)NC(=O)[C@H](Cc1ccccc1)NC(=O)[C@@H](N)CCCN=C(N)N)C(=O)N[C@@H](CCCN=C(N)N)C(=O)N[C@@H](CCCN=C(N)N)C(=O)N[C@@H](CCCN=C(N)N)C(=O)N1CCC[C@H]1C(=O)N[C@H](C(=O)N[C@@H](CCCN=C(N)N)C(=O)N1CCC[C@H]1C(=O)N1CCC[C@H]1C(=O)N[C@@H](Cc1c[nH]c2ccccc12)C(=O)N[C@@H](Cc1ccc(O)cc1)C(=O)N[C@@H](CCCN=C(N)N)C(=O)O)[C@@H](C)CC` [RFRWPIRRRPIRPPWYR] came in with an MIC against Escherichia coli BW25113 of 4 µM (≈ 9.64 µg/mL).
Consider `CC[C@H](C)[C@H](NC(=O)[C@H](CCCN=C(N)N)NC(=O)[C@H](C)NC(=O)CNC(=O)[C@@H](N)CCCN=C(N)N)C(=O)N[C@H](C(=O)N[C@H](C(=O)N[C@H](C(=O)N[C@@H](CCCN=C(N)N)C(=O)N[C@H](C(=O)N[C@@H](C)C(=O)N[C@@H](CCCN=C(N)N)C(N)=O)C(C)C)[C@@H](C)CC)C(C)C)C(C)C` [RGARIVVIRVAR], for which the MIC in assay [13] was 32 µM (≈ 43.7 µg/mL); with Escherichia coli UB1005, 5.86 µM (≈ 7.99 µg/mL); in assay [14], ≥ 32 µM; in [17] it was 22.7 µM (≈ 31 µg/mL); with Candida albicans, 11.7 µM (≈ 16 µg/mL); in assay [18] it was 22.7 µM (≈ 31 µg/mL). The minimum inhibitory concentration (MIC) was ≥ 32 µM in assay [15]; 16 µM (≈ 21.8 µg/mL) in [16]; 22.7 µM (≈ 31 µg/mL) in assay [19]; 22.7 µM (≈ 31 µg/mL) in assay [20]; 11.7 µM (≈ 16 µg/mL) in assay [21].
For the compound `CC[C@H](C)[C@H](NC(=O)[C@@H]1CCCN1C(=O)[C@@H]1CCCN1C(=O)[C@H](CCCN=C(N)N)NC(=O)[C@H](Cc1c[nH]c2ccccc12)NC(=O)[C@@H](N)CCCN=C(N)N)C(=O)N[C@@H](CCCN=C(N)N)C(=O)N[C@@H](CCCN=C(N)N)C(=O)N1CCC[C@H]1C(=O)N1CCC[C@H]1C(=O)N[C@H](C(=O)N[C@@H](CCCN=C(N)N)C(=O)N1CCC[C@H]1C(=O)N1CCC[C@H]1C(=O)N[C@@H](Cc1ccccc1)C(=O)N[C@@H](Cc1ccc(O)cc1)C(=O)N1CCC[C@H]1C(=O)O)[C@@H](C)CC` [RWRPPIRRPPIRPPFYP], the MIC in the assay on Escherichia coli BW25113 amounted to 16 µM (≈ 35.2 µg/mL).
`NC(=O)CC[C@H](NC(=O)[C@H](Cc1cnc[nH]1)NC(=O)[C@H](CO)NC(=O)[C@H](CCCN=C(N)N)NC(=O)[C@H](Cc1ccccc1)NC(=O)[C@H](Cc1cnc[nH]1)NC(=O)[C@H](CCCN=C(N)N)NC(=O)[C@H](Cc1cnc[nH]1)NC(=O)[C@H](Cc1cnc[nH]1)NC(=O)[C@@H](N)CO)C(=O)N[C@@H](CS)C(=O)N[C@@H](CCCN=C(N)N)C(=O)O` [SHHRHFRSHQCR]: the MIC is > 20.2 µM in [2]; > 20.2 µM in assay [3]; 20.2 µM (≈ 32 µg/mL) in [4]; > 20.2 µM in assay [5]; > 20.2 µM in assay [6]; 20.2 µM (≈ 32 µg/mL) in assay [7]. Further, the minimal inhibitory concentration (MIC) in [8] was > 20.2 µM.
